Experimental data published in DBAASP.
≈ marks a conversion by molar mass, not a printed value.

Experiments:
Assay in all cases: ≥ marks a high value that may be exact or a test limit, other limits are often not marked, values filed in µg/mL are converted to µM
[1] = system: Acinetobacter baumannii ATCC BAA-1794
[2] = system: Escherichia coli ATCC 51659
[3] = system: Pseudomonas aeruginosa PAO1
[4] = system: Staphylococcus aureus ATCC 33592
[5] = system: Acinetobacter baumannii CICC 22934
Bacillus cereus AS1.126 = system: Bacillus cereus AS1.126
[6] = system: Enterobacter cloacae CGMCC 1.58
[7] = system: Enterococcus faecalis CGMCC 1.595
[8] = system: Enterococcus faecium CGMCC 1.2334
Escherichia coli AS1.349 = system: Escherichia coli AS1.349
[9] = system: Klebsiella aerogenes CGMCC 1.876
[10] = system: Klebsiella pneumoniae subsp. pneumoniae CGMCC 1.176
[11] = system: Lactococcus lactis AS1.1690
[12] = system: Proteus mirabilis CICC 22931
[13] = system: Pseudomonas aeruginosa CGMCC 1.860
[14] = system: Staphylococcus aureus AS1.72
[15] = system: Cronobacter sakazakii DPC 6440
[16] = system: Listeria monocytogenes LO28
Escherichia coli DC2 = system: Escherichia coli DC2
Escherichia coli K-12 = system: Escherichia coli K-12
[17] = system: Staphylococcus aureus UAMS-1
Staphylococcus aureus = system: Staphylococcus aureus
[18] = system: Batrachochytrium dendrobatidis JEL-197
[19] = system: Escherichia coli ATCC 25922
Escherichia coli = system: Escherichia coli
Listeria monocytogenes = system: Listeria monocytogenes
[20] = system: Salmonella enterica subsp. enterica serovar Paratyphi A
[21] = system: Staphylococcus aureus 007
[22] = system: Staphylococcus aureus A170
[23] = system: Staphylococcus aureus A172
[24] = system: Staphylococcus epidermidis
[25] = system: Micrococcus luteus MTCC 106
[26] = system: Vibrio cholerae MTCC 3904
[27] = system: Acinetobacter calcoaceticus
Candida albicans = system: Candida albicans
Pseudomonas aeruginosa = system: Pseudomonas aeruginosa
Streptococcus agalactiae = system: Streptococcus agalactiae
[28] = system: Xanthomonas axonopodis pv. glycines ISBF 327

CC(C)C[C@H](NC(=O)[C@H](CCCCN)NC(=O)[C@H](CCC(=O)O)NC(=O)[C@H](CCCCN)NC(=O)[C@@H](NC(=O)[C@H](CCCCN)NC(=O)[C@H](CCCCN)NC(=O)[C@H](Cc1ccccc1)NC(=O)[C@H](Cc1cnc[nH]1)NC(=O)[C@H](CCC(=O)O)NC(=O)[C@H](CO)NC(=O)[C@H](Cc1ccccc1)NC(=O)[C@H](Cc1c[nH]c2ccccc12)NC(=O)[C@H](CC(N)=O)NC(=O)[C@H](CCCN=C(N)N)NC(=O)[C@@H](NC(=O)[C@@H](N)CCCCN)[C@@H](C)O)C(C)C)C(=O)N[C@@H](CCCCN)C(=O)N[C@@H](CC(=O)O)C(=O)N[C@H](C(=O)N[C@@H](Cc1ccccc1)C(=O)N[C@@H](C)C(=O)O)[C@@H](C)O [KTRNWFSEHFKKVKEKLKDTFA]
MIC [1]: ≥ 90.3 µM
MIC [2]: ≥ 90.3 µM
MIC [3]: > 90.3 µM
MIC [4]: ≥ 90.3 µM

CC(C)C[C@H](NC(=O)CNC(=O)[C@H](Cc1ccccc1)NC(=O)[C@H](CCCN=C(N)N)NC(=O)[C@H](CCCN=C(N)N)NC(=O)[C@H](CC(C)C)NC(=O)[C@H](Cc1cnc[nH]1)NC(=O)[C@H](CCCN=C(N)N)NC(=O)CNC(=O)[C@@H](NC(=O)[C@H](C)NC(=O)[C@@H](N)CO)C(C)C)C(=O)N[C@@H](CCCN=C(N)N)C(=O)N[C@@H](CCCCN)C(=O)N[C@@H](Cc1cnc[nH]1)C(=O)N[C@@H](CCCN=C(N)N)C(=O)N[C@@H](CCCCN)C(=O)N[C@@H](Cc1cnc[nH]1)C(=O)O [SAVGRHLRRFGLRKHRKH]
MIC [5]: ≥ 100 µM
MIC (Bacillus cereus AS1.126): 6.25 µM (≈ 13.8 µg/mL)
MIC [6]: ≥ 100 µM
MIC [7]: 12.5 µM (≈ 27.6 µg/mL)
MIC [8]: 12.5 µM (≈ 27.6 µg/mL)
MIC (Escherichia coli AS1.349): ≥ 100 µM
MIC [9]: ≥ 100 µM
MIC [10]: ≥ 100 µM
MIC [11]: 18.8 µM (≈ 41.5 µg/mL)
MIC [12]: ≥ 100 µM
MIC [13]: ≥ 100 µM
MIC [14]: 9.38 µM (≈ 20.7 µg/mL)

CC[C@H](C)[C@H](NC(=O)[C@@H](N)Cc1c[nH]c2ccccc12)C(=O)N[C@@H](CCC(N)=O)C(=O)N1CCC[C@H]1C(=O)N[C@@H](C)C(=O)N[C@H](C(=O)N[C@@H](CCCCN)C(=O)N[C@H](C(=O)N[C@H](C(=O)N1CCC[C@H]1C(=O)N[C@@H](Cc1ccc(O)cc1)C(=O)N[C@H](C(=O)N[C@@H](CCCN=C(N)N)C(=O)N[C@@H](Cc1ccc(O)cc1)C(=O)N[C@@H](CC(C)C)C(=O)O)C(C)C)[C@@H](C)CC)C(C)C)[C@@H](C)O [WIQPATKVIPYVRYL]
MIC [15]: ≥ 156 µM
MIC [16]: ≥ 39.1 µM

CC[C@H](C)[C@H](NC(=O)[C@H](CCCCN)NC(=O)[C@H](CCC(=O)O)NC(=O)[C@H](CCCCN)NC(=O)[C@H](CO)NC(=O)[C@H](CCCCN)NC(=O)[C@H](CCCN=C(N)N)NC(=O)[C@H](Cc1ccccc1)NC(=O)[C@H](Cc1ccccc1)NC(=O)[C@H](CC(=O)O)NC(=O)CNC(=O)[C@H](CC(C)C)NC(=O)[C@@H](N)CC(C)C)C(=O)NCC(=O)N[C@@H](CCCCN)C(=O)N[C@@H](CCC(=O)O)C(=O)N[C@@H](Cc1ccccc1)C(=O)N[C@@H](CCCCN)C(=O)N[C@@H](CCCN=C(N)N)C(=O)N[C@H](C(=O)N[C@H](C(=O)N[C@@H](CCC(N)=O)C(=O)N[C@@H](CCCN=C(N)N)C(=O)O)C(C)C)[C@@H](C)CC [LLGDFFRKSKEKIGKEFKRIVQR]
MIC (Escherichia coli DC2): 9 µM (≈ 25.4 µg/mL)
MIC (Escherichia coli K-12): ≥ 160 µM
MIC [17]: ≥ 160 µM
MIC (Staphylococcus aureus): > 24 µM

CC[C@H](C)[C@H](NC(=O)[C@H](CCCCN)NC(=O)[C@H](CCCCN)NC(=O)[C@H](CC(C)C)NC(=O)[C@@H](NC(=O)[C@H](CCC(N)=O)NC(=O)CNC(=O)[C@H](C)NC(=O)[C@@H](NC(=O)CNC(=O)[C@H](C)NC(=O)[C@@H](NC(=O)[C@@H](NC(=O)[C@@H]1CCCN1C(=O)[C@H](Cc1ccccc1)NC(=O)[C@@H](N)Cc1ccccc1)[C@@H](C)CC)C(C)C)C(C)C)C(C)C)C(=O)N[C@@H](Cc1ccc(O)cc1)C(=O)N[C@H]1CSSC[C@@H](C(=O)O)NC(=O)[C@H](CCCCN)NC(=O)[C@H](CCCCN)NC(=O)[C@H](CO)NC(=O)[C@H]([C@@H](C)CC)NC(=O)[C@H]([C@@H](C)O)NC1=O [FFPIVAGVAGQVLKKIYCTISKKC]
MIC [18]: 20 µM (≈ 52.2 µg/mL)
MIC [19]: 14 µM (≈ 36.6 µg/mL)

CC[C@H](C)[C@H](NC(=O)[C@@H]1CCCN1C(=O)[C@H](CC(C)C)NC(=O)[C@H](CC(C)C)NC(=O)[C@H](Cc1ccc(O)cc1)NC(=O)[C@H](CCCCN)NC(=O)[C@@H](N)CCCCN)C(=O)N[C@H](C(=O)NCC(=O)N[C@@H](CC(N)=O)C(=O)N[C@@H](CC(C)C)C(=O)N[C@@H](CC(C)C)C(=O)N[C@@H](CCCCN)C(=O)N[C@@H](CO)C(=O)N[C@@H](CC(C)C)C(=O)N[C@@H](CC(C)C)C(N)=O)C(C)C [KKYLLPIVGNLLKSLL]
MIC (Escherichia coli): 11 µM (≈ 20 µg/mL)
MIC (Listeria monocytogenes): 5.52 µM (≈ 9.99 µg/mL)
MIC [20]: 11 µM (≈ 20 µg/mL)
MIC [21]: 5.52 µM (≈ 9.99 µg/mL)
MIC [22]: 11 µM (≈ 20 µg/mL)
MIC [23]: 13.8 µM (≈ 25 µg/mL)
MIC [24]: 3.86 µM (≈ 7 µg/mL)

CC(C)C[C@H](NC(=O)[C@H](Cc1cnc[nH]1)NC(=O)[C@@H](NC(=O)[C@H](CC(C)C)NC(=O)[C@@H]1CSSC[C@H](NC(=O)[C@H](CO)NC(=O)[C@H](Cc2ccccc2)NC(=O)[C@@H]2CCCN2C(=O)[C@@H](NC(=O)[C@@H]2CCCN2C(=O)[C@H](C)N)C(C)C)C(=O)N[C@@H]([C@@H](C)O)C(=O)N[C@@H](CCCN=C(N)N)C(=O)NCC(=O)N1)[C@@H](C)O)C(=O)N[C@H](C(=O)O)C(C)C [APVPFSCTRGCLTHLV]
MIC [25]: 6.3 µM (≈ 10.7 µg/mL)
MIC [26]: 25.4 µM (≈ 43.2 µg/mL)

CC[C@H](C)[C@H](NC(=O)[C@H](C)NC(=O)[C@H](Cc1cnc[nH]1)NC(=O)[C@@H]1CCCN1C(=O)[C@@H](NC(=O)[C@H](CC(C)C)NC(=O)[C@H](CO)NC(=O)[C@H](CC(C)C)NC(=O)[C@@H](N)Cc1ccccc1)[C@@H](C)CC)C(=O)N[C@@H](CC(N)=O)C(=O)N[C@@H](C)C(=O)N[C@H](C(=O)N[C@@H](CO)C(=O)N[C@H](C(=O)N[C@@H](CC(C)C)C(=O)N[C@H](C(=O)N[C@@H](Cc1cnc[nH]1)C(=O)N[C@@H](Cc1cnc[nH]1)C(=O)N[C@@H](Cc1ccccc1)C(N)=O)C(C)C)[C@@H](C)O)C(C)C [FLSLIPHAINAVSTLVHHF]
MIC [27]: 3.7 µM (≈ 7.83 µg/mL)
MIC (Candida albicans): 15.1 µM (≈ 31.9 µg/mL)
MIC [19]: 15 µM (≈ 31.7 µg/mL)
MIC (Pseudomonas aeruginosa): 60.4 µM (≈ 128 µg/mL)
MIC (Staphylococcus aureus): 7.6 µM (≈ 16.1 µg/mL)
MIC (Streptococcus agalactiae): 1.9 µM (≈ 4.02 µg/mL)
MIC [28]: ≥ 121 µM
